± gives the expanded uncertainty stated by the source.
Conditions: 353.15 K; 100 kPa; Liquid; Vibrating tube method

Row | Structure (SMILES) | mass density
1 | CC[N+](CCO)(CCO)CCO.O=S(=O)([N-]S(=O)(=O)C(F)(F)F)C(F)(F)F | 1482.1 ± 1.2 kg/m3
2 | CCCC[N+](CCO)(CCO)CCO.O=S(=O)([N-]S(=O)(=O)C(F)(F)F)C(F)(F)F | 1409.4 ± 1.1 kg/m3
3 | CC[N+](C)(CCO)CCO.O=S(=O)([N-]S(=O)(=O)C(F)(F)F)C(F)(F)F | 1466.8 ± 1.2 kg/m3

Same assay, conditions: 354.15 K; 100 kPa; Liquid; Vibrating tube method

Row | Structure (SMILES) | mass density
4 | C[N+](CCO)(CCO)CCO.O=S(=O)([N-]S(=O)(=O)C(F)(F)F)C(F)(F)F | 1517.1 ± 1.2 kg/m3
5 | CC[N+](CCO)(CCO)CCO.O=S(=O)([N-]S(=O)(=O)C(F)(F)F)C(F)(F)F | 1481.3 ± 1.2 kg/m3
6 | CCCC[N+](CCO)(CCO)CCO.O=S(=O)([N-]S(=O)(=O)C(F)(F)F)C(F)(F)F | 1408.6 ± 1.1 kg/m3
7 | CC[N+](C)(CCO)CCO.O=S(=O)([N-]S(=O)(=O)C(F)(F)F)C(F)(F)F | 1466 ± 1.2 kg/m3

Same assay, conditions: 355.15 K; 100 kPa; Liquid; Vibrating tube method

Row | Structure (SMILES) | mass density
8 | C[N+](CCO)(CCO)CCO.O=S(=O)([N-]S(=O)(=O)C(F)(F)F)C(F)(F)F | 1516.2 ± 1.2 kg/m3
9 | CC[N+](CCO)(CCO)CCO.O=S(=O)([N-]S(=O)(=O)C(F)(F)F)C(F)(F)F | 1480.4 ± 1.2 kg/m3
10 | CCCC[N+](CCO)(CCO)CCO.O=S(=O)([N-]S(=O)(=O)C(F)(F)F)C(F)(F)F | 1407.7 ± 1.1 kg/m3
11 | CC[N+](C)(CCO)CCO.O=S(=O)([N-]S(=O)(=O)C(F)(F)F)C(F)(F)F | 1465.1 ± 1.2 kg/m3

Same assay, conditions: 356.15 K; 100 kPa; Liquid; Vibrating tube method

Row | Structure (SMILES) | mass density
12 | C[N+](CCO)(CCO)CCO.O=S(=O)([N-]S(=O)(=O)C(F)(F)F)C(F)(F)F | 1515.4 ± 1.2 kg/m3
13 | CC[N+](CCO)(CCO)CCO.O=S(=O)([N-]S(=O)(=O)C(F)(F)F)C(F)(F)F | 1479.6 ± 1.2 kg/m3
14 | CCCC[N+](CCO)(CCO)CCO.O=S(=O)([N-]S(=O)(=O)C(F)(F)F)C(F)(F)F | 1406.9 ± 1.1 kg/m3
15 | CC[N+](C)(CCO)CCO.O=S(=O)([N-]S(=O)(=O)C(F)(F)F)C(F)(F)F | 1464.3 ± 1.2 kg/m3

Same assay, conditions: 357.15 K; 100 kPa; Liquid; Vibrating tube method

Row | Structure (SMILES) | mass density
16 | C[N+](CCO)(CCO)CCO.O=S(=O)([N-]S(=O)(=O)C(F)(F)F)C(F)(F)F | 1514.5 ± 1.2 kg/m3
17 | CC[N+](CCO)(CCO)CCO.O=S(=O)([N-]S(=O)(=O)C(F)(F)F)C(F)(F)F | 1478.7 ± 1.2 kg/m3
18 | CCCC[N+](CCO)(CCO)CCO.O=S(=O)([N-]S(=O)(=O)C(F)(F)F)C(F)(F)F | 1406.1 ± 1.1 kg/m3
19 | CC[N+](C)(CCO)CCO.O=S(=O)([N-]S(=O)(=O)C(F)(F)F)C(F)(F)F | 1463.5 ± 1.2 kg/m3

Same assay, conditions: 358.15 K; 100 kPa; Liquid; Concentric cylinders viscometry

Row | Structure (SMILES) | viscosity
20 | C[N+](CCO)(CCO)CCO.O=S(=O)([N-]S(=O)(=O)C(F)(F)F)C(F)(F)F | 30.1 ± 1.2 mPa·s
21 | CC[N+](CCO)(CCO)CCO.O=S(=O)([N-]S(=O)(=O)C(F)(F)F)C(F)(F)F | 35.3 ± 1.4 mPa·s
22 | CCCC[N+](CCO)(CCO)CCO.O=S(=O)([N-]S(=O)(=O)C(F)(F)F)C(F)(F)F | 37 ± 1.5 mPa·s
23 | CC[N+](C)(CCO)CCO.O=S(=O)([N-]S(=O)(=O)C(F)(F)F)C(F)(F)F | 21.1 ± 0.9 mPa·s

Same assay, conditions: 358.15 K; 100 kPa; Liquid; Vibrating tube method

Row | Structure (SMILES) | mass density
24 | C[N+](CCO)(CCO)CCO.O=S(=O)([N-]S(=O)(=O)C(F)(F)F)C(F)(F)F | 1513.6 ± 1.2 kg/m3
25 | CC[N+](CCO)(CCO)CCO.O=S(=O)([N-]S(=O)(=O)C(F)(F)F)C(F)(F)F | 1477.9 ± 1.2 kg/m3
26 | CCCC[N+](CCO)(CCO)CCO.O=S(=O)([N-]S(=O)(=O)C(F)(F)F)C(F)(F)F | 1405.2 ± 1.1 kg/m3
27 | CC[N+](C)(CCO)CCO.O=S(=O)([N-]S(=O)(=O)C(F)(F)F)C(F)(F)F | 1462.6 ± 1.2 kg/m3

Same assay, conditions: 359.15 K; 100 kPa; Liquid; Vibrating tube method

Row | Structure (SMILES) | mass density
28 | C[N+](CCO)(CCO)CCO.O=S(=O)([N-]S(=O)(=O)C(F)(F)F)C(F)(F)F | 1512.8 ± 1.2 kg/m3
29 | CC[N+](CCO)(CCO)CCO.O=S(=O)([N-]S(=O)(=O)C(F)(F)F)C(F)(F)F | 1477.1 ± 1.2 kg/m3
30 | CCCC[N+](CCO)(CCO)CCO.O=S(=O)([N-]S(=O)(=O)C(F)(F)F)C(F)(F)F | 1404.4 ± 1.1 kg/m3
31 | CC[N+](C)(CCO)CCO.O=S(=O)([N-]S(=O)(=O)C(F)(F)F)C(F)(F)F | 1461.8 ± 1.2 kg/m3

Same assay, conditions: 360.15 K; 100 kPa; Liquid; Vibrating tube method

Row | Structure (SMILES) | mass density
32 | C[N+](CCO)(CCO)CCO.O=S(=O)([N-]S(=O)(=O)C(F)(F)F)C(F)(F)F | 1511.9 ± 1.2 kg/m3
33 | CC[N+](CCO)(CCO)CCO.O=S(=O)([N-]S(=O)(=O)C(F)(F)F)C(F)(F)F | 1476.2 ± 1.2 kg/m3
34 | CCCC[N+](CCO)(CCO)CCO.O=S(=O)([N-]S(=O)(=O)C(F)(F)F)C(F)(F)F | 1403.6 ± 1.1 kg/m3
35 | CC[N+](C)(CCO)CCO.O=S(=O)([N-]S(=O)(=O)C(F)(F)F)C(F)(F)F | 1460.9 ± 1.2 kg/m3

Same assay, conditions: 361.15 K; 100 kPa; Liquid; Vibrating tube method

Row | Structure (SMILES) | mass density
36 | C[N+](CCO)(CCO)CCO.O=S(=O)([N-]S(=O)(=O)C(F)(F)F)C(F)(F)F | 1511.1 ± 1.2 kg/m3
37 | CC[N+](CCO)(CCO)CCO.O=S(=O)([N-]S(=O)(=O)C(F)(F)F)C(F)(F)F | 1475.4 ± 1.2 kg/m3
38 | CCCC[N+](CCO)(CCO)CCO.O=S(=O)([N-]S(=O)(=O)C(F)(F)F)C(F)(F)F | 1402.8 ± 1.1 kg/m3
39 | CC[N+](C)(CCO)CCO.O=S(=O)([N-]S(=O)(=O)C(F)(F)F)C(F)(F)F | 1460.1 ± 1.2 kg/m3

Same assay, conditions: 362.16 K; 100 kPa; Liquid; Vibrating tube method

Row | Structure (SMILES) | mass density
40 | C[N+](CCO)(CCO)CCO.O=S(=O)([N-]S(=O)(=O)C(F)(F)F)C(F)(F)F | 1510.2 ± 1.2 kg/m3
41 | CC[N+](CCO)(CCO)CCO.O=S(=O)([N-]S(=O)(=O)C(F)(F)F)C(F)(F)F | 1474.6 ± 1.2 kg/m3
42 | CCCC[N+](CCO)(CCO)CCO.O=S(=O)([N-]S(=O)(=O)C(F)(F)F)C(F)(F)F | 1401.9 ± 1.1 kg/m3
43 | CC[N+](C)(CCO)CCO.O=S(=O)([N-]S(=O)(=O)C(F)(F)F)C(F)(F)F | 1459.2 ± 1.2 kg/m3

Same assay, conditions: 363.15 K; 100 kPa; Liquid; Concentric cylinders viscometry

Row | Structure (SMILES) | viscosity
44 | C[N+](CCO)(CCO)CCO.O=S(=O)([N-]S(=O)(=O)C(F)(F)F)C(F)(F)F | 25.8 ± 1 mPa·s
45 | CC[N+](CCO)(CCO)CCO.O=S(=O)([N-]S(=O)(=O)C(F)(F)F)C(F)(F)F | 30 ± 1.2 mPa·s
46 | CCCC[N+](CCO)(CCO)CCO.O=S(=O)([N-]S(=O)(=O)C(F)(F)F)C(F)(F)F | 31.1 ± 1.3 mPa·s
47 | CC[N+](C)(CCO)CCO.O=S(=O)([N-]S(=O)(=O)C(F)(F)F)C(F)(F)F | 18.4 ± 0.7 mPa·s

Same assay, conditions: 363.15 K; 100 kPa; Liquid; Vibrating tube method

Row | Structure (SMILES) | mass density
48 | C[N+](CCO)(CCO)CCO.O=S(=O)([N-]S(=O)(=O)C(F)(F)F)C(F)(F)F | 1509.3 ± 1.2 kg/m3
49 | CC[N+](CCO)(CCO)CCO.O=S(=O)([N-]S(=O)(=O)C(F)(F)F)C(F)(F)F | 1473.7 ± 1.2 kg/m3
50 | CCCC[N+](CCO)(CCO)CCO.O=S(=O)([N-]S(=O)(=O)C(F)(F)F)C(F)(F)F | 1401.1 ± 1.1 kg/m3
51 | CC[N+](C)(CCO)CCO.O=S(=O)([N-]S(=O)(=O)C(F)(F)F)C(F)(F)F | 1458.4 ± 1.2 kg/m3
